Measurements: publication PMC3234165 (Biochemistry, 2011)
Read-outs that look alike come from different tables or passages of the source.

Key:
[1] = molecular target: T1, sigma-2 receptor (sigma-2 sites) (Rattus norvegicus, UniProt Q5U3Y7); assay: Competitive displacement of [3H]-DTG binding, rat liver membranes; settings: for KI sigma-2 sites: rat liver membranes in the presence of 100 nM (+)-pentazocine, [3H]-DTG; for sigma-2/sigma-1: ratio from the KI value of sigma-1 and sigma-2 sites (membranes)
T1 sequence (Q5U3Y7 1-176): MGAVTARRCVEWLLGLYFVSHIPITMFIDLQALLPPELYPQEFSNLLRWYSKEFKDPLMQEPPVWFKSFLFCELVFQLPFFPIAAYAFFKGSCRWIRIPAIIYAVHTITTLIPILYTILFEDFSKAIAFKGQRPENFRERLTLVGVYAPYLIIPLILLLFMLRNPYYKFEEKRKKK

[2] = molecular target: Kv1.4 potassium channel (Rattus norvegicus, UniProt P15385+Q9R0C9); assay: Whole cell patch clamp, HEK-293 cells co-expressing Kv1.4 and sigma-1 receptor; format: cell-based; settings: for average inhibition of the Kv1.4 potassium channel: concentrations up to 300 μM, HEK-293 with Kv1.4 and sigma-1 receptor
[3] = molecular target: pure guinea pig sigma-1 receptor (Cavia porcellus, UniProt Q60492); assay: Competitive displacement of [3H]-; format: binding
[4] = molecular target: M5 (muscarinic acetylcholine receptor type 5) (Homo sapiens, UniProt P08912); assay: NIMH PDSP secondary binding assay
[5] = molecular target: Sig-1R, sigma-1 receptor (Rattus norvegicus, UniProt Q9R0C9); assay: NIMH PDSP secondary binding assay
[6] = molecular target: H2 (histamine receptor type 2) (Homo sapiens, UniProt P25021); assay: NIMH PDSP secondary binding assay
[7] = molecular target: 5HT1B (serotonin receptor subtype 1B) (Homo sapiens, UniProt P28222); assay: NIMH PDSP secondary binding assay
[8] = tested on: HT-29; assay: Multiplex cytotoxicity assay; format: cell-based; settings: Homo sapiens, HT-29, read-out: IC50 HT-29
[9] = tested on: A549; assay: Multiplex cytotoxicity assay; format: cell-based; settings: Homo sapiens, A549, read-out: IC50 A549
[10] = molecular target: β-2 (β-adrenergic receptor subtype 2) (Homo sapiens, UniProt P07550); assay: NIMH PDSP secondary binding assay
[11] = molecular target: D1 (dopamine receptor type 1) (Homo sapiens, UniProt P21728); assay: NIMH PDSP secondary binding assay
[12] = tested on: Du145; assay: Multiplex cytotoxicity assay; format: cell-based; settings: Homo sapiens, DU-145, read-out: IC50 Du145
[13] = tested on: caspases 3/7, 8, and 9; assay: Caspase activation potential; format: cell-based; settings: data not shown
[14] = molecular target: M3 (muscarinic acetylcholine receptor type 3) (Homo sapiens, UniProt P20309); assay: NIMH PDSP secondary binding assay
[15] = tested on: HCT-15; assay: Multiplex cytotoxicity assay; format: cell-based; settings: Homo sapiens, HCT-15, read-out: IC50 HCT-15
[16] = molecular target: NET (norepinephrine transporter) (Homo sapiens, UniProt P23975); assay: NIMH PDSP secondary binding assay
[17] = molecular target: T2, Sig-2R, sigma-2 receptor (Rattus norvegicus, UniProt Q5U3Y7); assay: NIMH PDSP secondary binding assay
T2 sequence (Q5U3Y7 1-176): T1 sequence (Q5U3Y7 1-176)

[18] = molecular target: sigma-1 receptor (Cavia porcellus, UniProt Q60492); assay: Saturation binding of [3H]-; set-up: species or system guinea pig; settings: GPLM; increasing concentrations of 2b
[19] = tested on: MCF-7; assay: Multiplex cytotoxicity assay; format: cell-based; settings: Homo sapiens, MCF7, read-out: IC50 MCF-7
[20] = molecular target: T3, α-1A (α-adrenergic receptor subtype 1A) (Homo sapiens, UniProt P35348); assay: NIMH PDSP secondary binding assay
T3 sequence (P35348 1-466): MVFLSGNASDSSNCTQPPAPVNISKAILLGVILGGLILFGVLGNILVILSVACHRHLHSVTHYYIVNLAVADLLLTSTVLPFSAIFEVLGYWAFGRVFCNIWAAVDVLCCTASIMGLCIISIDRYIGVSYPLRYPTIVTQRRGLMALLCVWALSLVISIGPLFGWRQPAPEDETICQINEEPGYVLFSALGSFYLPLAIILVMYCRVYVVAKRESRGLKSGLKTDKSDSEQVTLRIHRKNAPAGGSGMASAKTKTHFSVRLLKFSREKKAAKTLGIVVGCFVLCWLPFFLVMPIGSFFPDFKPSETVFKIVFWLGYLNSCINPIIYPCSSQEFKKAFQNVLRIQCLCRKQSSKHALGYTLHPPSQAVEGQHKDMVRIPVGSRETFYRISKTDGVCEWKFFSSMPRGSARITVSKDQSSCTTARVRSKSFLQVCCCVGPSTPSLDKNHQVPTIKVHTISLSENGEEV

[21] = molecular target: 5HT2B (serotonin receptor subtype 2B) (Homo sapiens, UniProt P41595); assay: NIMH PDSP secondary binding assay
[22] = molecular target: β-3 (β-adrenergic receptor subtype 3) (Homo sapiens, UniProt P13945); assay: NIMH PDSP secondary binding assay
[23] = molecular target: H3 (histamine receptor type 3) (Homo sapiens, UniProt Q9Y5N1); assay: NIMH PDSP secondary binding assay
[24] = molecular target: 5HT7 (serotonin receptor subtype 7) (Homo sapiens, UniProt P34969); assay: NIMH PDSP secondary binding assay
[25] = tested on: SK-OV-3; assay: Multiplex cytotoxicity assay; format: cell-based; settings: Homo sapiens, SK-OV-3, read-out: IC50 SK-OV-3
[26] = tested on: MCF-10A; assay: Multiplex cytotoxicity assay; format: cell-based; settings: Homo sapiens, read-out: IC50 MCF-10A
[27] = molecular target: SERT (serotonin transporter) (Homo sapiens, UniProt P31645); assay: NIMH PDSP secondary binding assay
[28] = tested on: NCI-H460; assay: Multiplex cytotoxicity assay; format: cell-based; settings: Homo sapiens, NCI-H460, read-out: IC50 NCI-H460
[29] = molecular target: T4, 5HT1A (serotonin receptor subtype 1A) (Homo sapiens, UniProt P08908); assay: NIMH PDSP secondary binding assay; settings: KI 5HT1A
T4 sequence (P08908 1-422): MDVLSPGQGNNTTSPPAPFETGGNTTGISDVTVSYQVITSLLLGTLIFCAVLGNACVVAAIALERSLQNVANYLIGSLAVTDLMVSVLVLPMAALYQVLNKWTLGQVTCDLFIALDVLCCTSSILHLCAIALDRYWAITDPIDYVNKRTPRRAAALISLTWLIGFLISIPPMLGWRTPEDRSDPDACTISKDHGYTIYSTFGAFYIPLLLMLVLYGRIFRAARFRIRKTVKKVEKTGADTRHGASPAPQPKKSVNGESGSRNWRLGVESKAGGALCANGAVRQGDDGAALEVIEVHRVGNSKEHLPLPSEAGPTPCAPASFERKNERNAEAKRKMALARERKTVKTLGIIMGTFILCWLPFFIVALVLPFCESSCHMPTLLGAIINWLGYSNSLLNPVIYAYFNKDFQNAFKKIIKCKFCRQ

[30] = tested on: MDA-MB-231; assay: Multiplex cytotoxicity assay; format: cell-based; settings: Homo sapiens, MDA-MB-231, read-out: IC50 MDA-MB-231
[31] = molecular target: M4 (muscarinic acetylcholine receptor type 4) (Homo sapiens, UniProt P08173); assay: NIMH PDSP secondary binding assay
[32] = tested on: SF-268; assay: Multiplex cytotoxicity assay; format: cell-based; settings: Homo sapiens, SF-268, read-out: IC50 SF-268
[33] = tested on: H1299; assay: Multiplex cytotoxicity assay; format: cell-based; settings: Homo sapiens, NCI-H1299, read-out: IC50 H1299
[34] = tested on: tumors grown from the mouse mammary adenocarcinoma cell line 66; settings: nude mice with tumors from mouse mammary adenocarcinoma cell line 66; cited from earlier work
[35] = tested on: caspases 3/7; settings: MCF-7 and MDA MB 468 mammary carcinoma; ref Spruce et al. 2004; cited from earlier work
[36] = tested on: caspases 3/7; assay: Caspase activation by rimcazole in cancer cell lines; format: cell-based; settings: any cancer cell lines tested, including MCF-7
[37] = read-out: KI pure sigma-1 receptor, Table 1, [3H]-(+)-pentazocine displacement

Chain of pure guinea pig sigma-1 receptor (Q60492 whole entry): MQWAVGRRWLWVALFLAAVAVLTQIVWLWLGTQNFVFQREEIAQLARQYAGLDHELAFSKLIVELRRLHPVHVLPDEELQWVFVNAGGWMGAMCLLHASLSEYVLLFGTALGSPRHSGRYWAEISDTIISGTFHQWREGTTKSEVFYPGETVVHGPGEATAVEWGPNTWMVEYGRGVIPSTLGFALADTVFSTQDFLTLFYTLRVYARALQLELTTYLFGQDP
Chain of Kv1.4 potassium channel (P15385 whole entry): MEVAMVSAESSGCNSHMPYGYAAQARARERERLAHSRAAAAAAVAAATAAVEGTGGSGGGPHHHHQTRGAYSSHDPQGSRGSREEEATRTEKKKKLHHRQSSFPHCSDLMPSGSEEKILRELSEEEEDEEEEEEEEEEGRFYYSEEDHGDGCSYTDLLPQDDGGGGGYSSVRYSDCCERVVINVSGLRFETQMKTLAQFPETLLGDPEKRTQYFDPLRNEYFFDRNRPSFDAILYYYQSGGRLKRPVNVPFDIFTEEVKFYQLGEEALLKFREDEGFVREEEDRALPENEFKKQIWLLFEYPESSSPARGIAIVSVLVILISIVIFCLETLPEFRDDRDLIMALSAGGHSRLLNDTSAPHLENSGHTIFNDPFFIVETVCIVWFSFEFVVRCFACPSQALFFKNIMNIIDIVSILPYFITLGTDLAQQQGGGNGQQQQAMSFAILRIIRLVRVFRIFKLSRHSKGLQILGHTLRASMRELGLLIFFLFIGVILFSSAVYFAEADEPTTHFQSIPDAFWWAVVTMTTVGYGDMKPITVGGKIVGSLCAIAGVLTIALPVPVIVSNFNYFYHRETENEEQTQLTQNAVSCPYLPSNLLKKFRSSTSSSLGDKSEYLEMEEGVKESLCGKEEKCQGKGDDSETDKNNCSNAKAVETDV
Chain of Kv1.4 potassium channel (Q9R0C9 whole entry): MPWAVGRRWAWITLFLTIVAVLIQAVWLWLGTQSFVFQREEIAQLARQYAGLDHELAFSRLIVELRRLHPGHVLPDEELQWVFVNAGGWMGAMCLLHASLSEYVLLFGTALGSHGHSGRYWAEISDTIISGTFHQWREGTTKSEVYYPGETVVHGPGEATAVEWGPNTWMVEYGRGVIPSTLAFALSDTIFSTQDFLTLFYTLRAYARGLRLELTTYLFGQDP
Chain of β-3 (β-adrenergic receptor subtype 3) (P13945 whole entry): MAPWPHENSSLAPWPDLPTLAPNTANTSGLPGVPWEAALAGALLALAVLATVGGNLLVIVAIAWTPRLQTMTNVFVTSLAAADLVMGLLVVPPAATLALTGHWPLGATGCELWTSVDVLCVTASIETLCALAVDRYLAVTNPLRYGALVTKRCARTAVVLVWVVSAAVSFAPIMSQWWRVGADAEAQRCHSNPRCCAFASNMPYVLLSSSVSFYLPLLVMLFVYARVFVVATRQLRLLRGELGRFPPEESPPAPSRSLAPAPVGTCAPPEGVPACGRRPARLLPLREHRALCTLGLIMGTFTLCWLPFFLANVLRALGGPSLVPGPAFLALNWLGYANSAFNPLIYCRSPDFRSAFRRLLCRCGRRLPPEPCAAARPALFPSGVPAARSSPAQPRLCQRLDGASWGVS
Chain of M5 (muscarinic acetylcholine receptor type 5) (P08912 whole entry): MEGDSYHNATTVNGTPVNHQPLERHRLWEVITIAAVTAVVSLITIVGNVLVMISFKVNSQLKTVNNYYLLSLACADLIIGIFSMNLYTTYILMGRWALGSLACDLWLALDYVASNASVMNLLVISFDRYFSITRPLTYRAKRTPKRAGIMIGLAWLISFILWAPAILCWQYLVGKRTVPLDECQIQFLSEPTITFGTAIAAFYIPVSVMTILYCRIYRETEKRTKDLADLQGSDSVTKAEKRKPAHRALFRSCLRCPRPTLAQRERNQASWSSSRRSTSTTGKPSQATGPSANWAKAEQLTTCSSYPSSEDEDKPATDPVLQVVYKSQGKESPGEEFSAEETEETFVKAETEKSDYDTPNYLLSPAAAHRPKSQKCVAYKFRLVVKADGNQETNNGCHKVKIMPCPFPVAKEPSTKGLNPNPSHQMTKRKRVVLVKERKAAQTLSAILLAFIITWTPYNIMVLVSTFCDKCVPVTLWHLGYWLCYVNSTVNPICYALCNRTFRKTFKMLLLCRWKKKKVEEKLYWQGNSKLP
Chain of 5HT2B (serotonin receptor subtype 2B) (P41595 whole entry, species assumed): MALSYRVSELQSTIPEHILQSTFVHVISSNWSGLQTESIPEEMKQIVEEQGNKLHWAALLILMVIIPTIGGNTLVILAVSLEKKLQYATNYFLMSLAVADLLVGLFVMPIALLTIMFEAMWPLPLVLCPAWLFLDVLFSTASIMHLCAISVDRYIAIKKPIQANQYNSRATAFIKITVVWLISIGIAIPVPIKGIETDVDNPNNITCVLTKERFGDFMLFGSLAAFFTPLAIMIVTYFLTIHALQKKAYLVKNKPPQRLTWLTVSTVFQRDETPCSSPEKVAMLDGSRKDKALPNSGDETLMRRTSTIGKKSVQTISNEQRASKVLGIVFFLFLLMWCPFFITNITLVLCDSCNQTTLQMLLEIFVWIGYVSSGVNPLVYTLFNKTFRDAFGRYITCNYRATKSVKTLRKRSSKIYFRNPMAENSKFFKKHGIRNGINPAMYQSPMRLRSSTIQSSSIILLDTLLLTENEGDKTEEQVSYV
Chain of M4 (muscarinic acetylcholine receptor type 4) (P08173 whole entry): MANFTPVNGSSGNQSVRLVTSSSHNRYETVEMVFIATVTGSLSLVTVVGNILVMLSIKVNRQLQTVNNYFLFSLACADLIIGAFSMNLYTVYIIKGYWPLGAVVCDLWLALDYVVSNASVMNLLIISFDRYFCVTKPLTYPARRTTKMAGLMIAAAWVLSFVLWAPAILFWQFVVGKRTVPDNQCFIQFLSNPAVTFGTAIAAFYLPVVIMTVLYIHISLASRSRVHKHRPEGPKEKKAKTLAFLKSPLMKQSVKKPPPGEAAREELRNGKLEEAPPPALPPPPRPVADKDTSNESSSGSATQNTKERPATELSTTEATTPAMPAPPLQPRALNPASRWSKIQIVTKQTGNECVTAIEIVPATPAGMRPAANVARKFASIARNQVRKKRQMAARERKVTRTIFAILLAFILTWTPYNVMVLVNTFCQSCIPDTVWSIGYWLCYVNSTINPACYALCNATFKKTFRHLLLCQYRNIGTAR
Chain of SERT (serotonin transporter) (P31645 whole entry, species assumed): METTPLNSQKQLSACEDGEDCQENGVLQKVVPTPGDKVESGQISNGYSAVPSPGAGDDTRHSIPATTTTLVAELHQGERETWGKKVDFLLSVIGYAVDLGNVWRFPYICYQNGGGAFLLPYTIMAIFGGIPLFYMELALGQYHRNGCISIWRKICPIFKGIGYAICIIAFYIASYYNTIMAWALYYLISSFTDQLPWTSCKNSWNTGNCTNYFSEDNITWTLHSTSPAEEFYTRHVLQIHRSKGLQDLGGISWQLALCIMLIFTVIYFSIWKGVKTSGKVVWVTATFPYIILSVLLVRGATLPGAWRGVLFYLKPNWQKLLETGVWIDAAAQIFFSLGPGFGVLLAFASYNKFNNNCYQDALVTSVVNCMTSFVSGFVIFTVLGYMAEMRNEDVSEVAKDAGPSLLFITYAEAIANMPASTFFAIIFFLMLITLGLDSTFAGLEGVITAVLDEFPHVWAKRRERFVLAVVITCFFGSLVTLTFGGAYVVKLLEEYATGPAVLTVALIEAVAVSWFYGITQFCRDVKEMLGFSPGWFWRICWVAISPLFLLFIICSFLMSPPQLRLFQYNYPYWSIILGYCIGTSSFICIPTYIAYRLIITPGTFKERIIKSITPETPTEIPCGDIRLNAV
Chain of M3 (muscarinic acetylcholine receptor type 3) (P20309 whole entry): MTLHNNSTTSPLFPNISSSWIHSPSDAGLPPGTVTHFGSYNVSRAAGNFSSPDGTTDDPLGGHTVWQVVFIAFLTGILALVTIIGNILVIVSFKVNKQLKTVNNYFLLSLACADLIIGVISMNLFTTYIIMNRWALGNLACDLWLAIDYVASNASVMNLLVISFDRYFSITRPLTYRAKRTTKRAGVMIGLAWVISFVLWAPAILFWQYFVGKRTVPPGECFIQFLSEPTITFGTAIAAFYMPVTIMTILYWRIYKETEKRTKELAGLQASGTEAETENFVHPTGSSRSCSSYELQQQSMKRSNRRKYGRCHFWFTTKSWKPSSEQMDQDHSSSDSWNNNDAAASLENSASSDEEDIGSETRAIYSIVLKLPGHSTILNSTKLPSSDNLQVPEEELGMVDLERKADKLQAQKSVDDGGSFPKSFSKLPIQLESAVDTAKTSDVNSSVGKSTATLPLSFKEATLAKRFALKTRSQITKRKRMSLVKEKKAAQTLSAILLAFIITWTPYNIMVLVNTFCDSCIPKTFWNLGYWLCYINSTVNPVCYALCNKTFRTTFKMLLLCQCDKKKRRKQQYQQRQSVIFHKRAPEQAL
Chain of H2 (histamine receptor type 2) (P25021 whole entry): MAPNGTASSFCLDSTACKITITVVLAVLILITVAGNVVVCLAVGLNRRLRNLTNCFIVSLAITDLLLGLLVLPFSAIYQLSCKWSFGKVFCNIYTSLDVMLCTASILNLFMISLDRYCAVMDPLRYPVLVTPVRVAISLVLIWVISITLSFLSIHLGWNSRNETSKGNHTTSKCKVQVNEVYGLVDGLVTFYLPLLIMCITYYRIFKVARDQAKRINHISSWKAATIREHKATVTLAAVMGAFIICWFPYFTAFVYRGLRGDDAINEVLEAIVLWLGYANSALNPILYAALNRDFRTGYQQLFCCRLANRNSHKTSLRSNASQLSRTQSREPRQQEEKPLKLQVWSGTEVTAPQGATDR
Chain of Sig-1R, sigma-1 receptor (Q9R0C9 whole entry): as the sequence (Q9R0C9 whole entry) above
Chain of sigma-1 receptor (Q60492 whole entry): as the sequence (Q60492 whole entry) above

CCCCNCCCc1ccccc1 [1a, N-(3-Phenylpropyl)butan-1-amine]
KI sigma-2 sites [1]: nanomolar affinities
sigma-2/sigma-1 [1]: 2
IC50 [2]: 50 µM
Ki [3]: 0.2 ± 0.02 µM

CCCCNCCCc1ccc([N+](=O)[O-])cc1 [1b, N-(3-(4-Nitrophenyl)propyl)butan-1-amine]
KI sigma-2 sites [1]: nanomolar affinities
sigma-2/sigma-1 [1]: 7

CCCCCCCNCCCc1ccc([N+](=O)[O-])cc1 [2b, N-(3-(4-Nitrophenyl)propyl)heptan-1-amine]
Ki [4]: 0.3 µM
Ki [5]: 0.02 µM
Ki [6]: 0.6 µM
Ki [7]: > 10 µM
IC50 [8]: 30 ± 1 µM
IC50 [9]: 55 ± 5 µM
Ki [10]: > 10 µM
Ki [11]: > 10 µM
IC50 [12]: 29 ± 1 µM
activation of caspases 3/7, 8, and 9 [13]: did not activate
Ki [14]: 1.1 µM
IC50 [15]: > 100 µM
KI sigma-2 sites [1]: nanomolar affinities
sigma-2/sigma-1 [1]: 1
Ki [16]: 4 µM
Ki [17]: 0.014 µM
Bmax of [3H]-(+)-pentazocine in the presence of 2b [18]: unchanged
IC50 [19]: 21 ± 1 µM
Ki [20]: > 10 µM
Ki [21]: 1.1 µM
Ki [22]: > 10 µM
Ki [23]: > 10 µM
Ki [24]: 0.9 µM
IC50 [25]: 73 ± 8 µM
IC50 [26]: 53 ± 6 µM
Ki [27]: 1.1 µM
IC50 [28]: 38 ± 4 µM
Ki ([29]; NIMH PDSP, [3H]8-OH-DPAT/0.5 nM): 0.05 µM
Ki ([29]; text statement on secondary screen): < 0.05 µM
IC50 [30]: 30 ± 2 µM
Ki [31]: 1.4 µM
IC50 [32]: 40 ± 3 µM
IC50 [33]: 28 ± 1 µM

CCCCCCCCCCCCCCCCCCNCCCc1ccccc1 [4a, N-(3-Phenylpropyl)octadecan-1-amine]
KI sigma-2 sites [1]: micromolar affinities
sigma-2/sigma-1 [1]: 0.6

CCCCCCCCCCCCCCCCCCNCCCc1ccc([N+](=O)[O-])cc1 [4b, N-(3-(4-Nitrophenyl)propyl)octadecan-1-amine]
KI sigma-2 sites [1]: micromolar affinities
sigma-2/sigma-1 [1]: 0.3
Ki [3]: 0.042 ± 0.007 µM

CCCCCN [Amylamine]
Ki [3, 37]: 167 ± 35 µM

CCCCN [Butylamine, reference compound]
average inhibition of the Kv1.4 potassium channel [2]: 21%
Ki [3, 37]: 477 ± 67 µM

CCCCCCCN [Heptylamine, reference compound]
average inhibition of the Kv1.4 potassium channel [2]: 15%

CCCCCCCCN [Octylamine]
Ki [3, 37]: 6 ± 3 µM

CCCCCCCCCCCCCCN [Tretradecylamine]
Ki [3, 37]: 1 ± 0.03 µM

O=C(Cc1cccc(Br)c1)NC1CCN(Cc2ccc([18F])cc2)CC1 [[^18F]FBPBPA, N-[1-(4′-[^18F]fluorobenzyl)piperidin-4-yl]-3-bromophenylacetamide]
receptor-specific uptake of the tracer in the brain [34]: ~ 60%
receptor-specific uptake of the tracer in the tumor [34]: ~ 25%

C[C@@H]1CN(CCCn2c3ccccc3c3ccccc32)C[C@H](C)N1 [rimcazole]
activation of caspases 3/7 [35]: activate
activation of caspases 3/7 [36]: not found to activate
